Key:
Assay in all cases: relative viability (nuclei count vs DMSO), 5 days (fraction); higher = more cells survive
[1] = tested on: NCI-H460
How it was run: (§1)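 For relative viability, nuclei counts in treated wells were divided by those in vehicle wells. Lung cancer cell lines had been pin-tool dosed in 1536-well plates the day after seeding and cultured for 5 days, then fixed and stained in one step (final 0.05% Triton X-100, 1% formaldehyde, 1 ug/ml Hoechst) and imaged at 4×. Doses were one drug alone or a fixed anchor-drug dose plus five library-drug doses (not always all listed) in √10 steps, and values are duplicate-plate medians.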

[2] = tested on: LOU-NH91
How it was run: as §1

[3] = tested on: NCI-H1563
How it was run: as §1

[4] = tested on: CAL-12T
How it was run: as §1

[5] = tested on: NCI-H2023
How it was run: as §1

[6] = tested on: NCI-H2085
How it was run: as §1

[7] = tested on: BEN
How it was run: as §1

[8] = tested on: SK-LU-1
How it was run: as §1

[9] = tested on: NCI-H1650
How it was run: as §1

[10] = tested on: COR-L23
How it was run: as §1

[11] = tested on: NCI-H1734
How it was run: as §1

[12] = tested on: NCI-H1437
How it was run: as §1

[13] = tested on: NCI-H1975
How it was run: as §1

[14] = tested on: NCI-H1793
How it was run: as §1

[15] = tested on: NCI-H1651
How it was run: as §1

[16] = tested on: NCI-H1355
How it was run: as §1

[17] = tested on: NCI-H441
How it was run: as §1

[18] = tested on: NCI-H838
How it was run: as §1

[19] = tested on: HCC-366
How it was run: as §1

[20] = tested on: LU99A
How it was run: as §1

[21] = tested on: NCI-H358
How it was run: as §1

Compound `CCN(CC)CCCCNc1ncc2cc(-c3cc(OC)cc(OC)c3)c(NC(=O)NC(C)(C)C)nc2n1` + CS(=O)(=O)N1CCN(Cc2cc3nc(-c4cccc5[nH]ncc45)nc(N4CCOCC4)c3s2)CC1 [Pictilisib] (partner 1 µM) has a relative viability ([1]; first compound 0.01 µM) of 0.311, a relative viability ([1]; first compound 0.03162 µM) of 0.258 and a relative viability ([1]; first compound 0.1 µM) of 0.417. For the same compound, the relative viability ([1]; first compound 0.3162 µM) was 0.382, the relative viability ([1]; first compound 1 µM) was 0.395 and the relative viability ([2]; first compound 0.01 µM) was 0.476. For the same compound, the relative viability ([2]; first compound 0.03162 µM) was 0.494, the relative viability ([2]; first compound 0.1 µM) was 0.611 and the relative viability ([2]; first compound 0.3162 µM) was 0.524. For the same compound, the relative viability ([2]; first compound 1 µM) was 0.51, the relative viability ([3]; first compound 0.01 µM) was 0.63 and the relative viability ([3]; first compound 0.03162 µM) was 0.636. For the same compound, the relative viability ([3]; first compound 0.1 µM) was 0.634, the relative viability ([3]; first compound 0.3162 µM) was 0.529 and the relative viability ([3]; first compound 1 µM) was 0.425. It also gave a relative viability ([4]; first compound 0.03162 µM) of 0.322, a relative viability ([4]; first compound 0.1 µM) of 0.386 and a relative viability ([4]; first compound 0.3162 µM) of 0.6. It also gave a relative viability ([4]; first compound 1 µM) of 0.397, a relative viability ([5]; first compound 0.01 µM) of 0.22 and a relative viability ([5]; first compound 0.03162 µM) of 0.222. It also gave a relative viability ([5]; first compound 0.1 µM) of 0.221, a relative viability ([5]; first compound 0.3162 µM) of 0.232 and a relative viability ([5]; first compound 1 µM) of 0.193. For the same compound, the relative viability ([6]; first compound 0.01 µM) was 0.432, the relative viability ([6]; first compound 0.03162 µM) was 0.46 and the relative viability ([6]; first compound 0.1 µM) was 0.233. The relative viability ([6]; first compound 0.3162 µM) was 0.512, the relative viability ([6]; first compound 1 µM) was 0.46 and the relative viability ([7]; first compound 0.01 µM) was 0.587. The relative viability ([7]; first compound 0.03162 µM) was 0.516, the relative viability ([7]; first compound 0.1 µM) was 0.525 and the relative viability ([7]; first compound 0.3162 µM) was 0.59. The relative viability ([7]; first compound 1 µM) was 0.485, the relative viability ([8]; first compound 0.01 µM) was 0.483 and the relative viability ([8]; first compound 0.03162 µM) was 0.427. For the same compound, the relative viability ([8]; first compound 0.1 µM) was 0.526, the relative viability ([8]; first compound 0.3162 µM) was 0.527 and the relative viability ([8]; first compound 1 µM) was 0.393. It also gave a relative viability ([9]; first compound 0.01 µM) of 0.542, a relative viability ([9]; first compound 0.03162 µM) of 0.464 and a relative viability ([9]; first compound 0.1 µM) of 0.423. The relative viability ([9]; first compound 0.3162 µM) was 0.477, the relative viability ([9]; first compound 1 µM) was 0.22 and the relative viability ([10]; first compound 0.01 µM) was 0.781. For the same compound, the relative viability ([10]; first compound 0.03162 µM) was 0.955, the relative viability ([10]; first compound 0.1 µM) was 0.824 and the relative viability ([10]; first compound 0.3162 µM) was 0.809. It also gave a relative viability ([10]; first compound 1 µM) of 0.8, a relative viability ([11]; first compound 0.01 µM) of 0.452 and a relative viability ([11]; first compound 0.03162 µM) of 0.424. The relative viability ([11]; first compound 0.1 µM) was 0.54, the relative viability ([11]; first compound 0.3162 µM) was 0.427 and the relative viability ([11]; first compound 1 µM) was 0.395. For the same compound, the relative viability ([12]; first compound 0.01 µM) was 0.544, the relative viability ([12]; first compound 0.03162 µM) was 0.482 and the relative viability ([12]; first compound 0.1 µM) was 0.424. For the same compound, the relative viability ([12]; first compound 0.3162 µM) was 0.395, the relative viability ([12]; first compound 1 µM) was 0.392 and the relative viability ([13]; first compound 0.01 µM) was 0.28. It also gave a relative viability ([13]; first compound 0.03162 µM) of 0.277, a relative viability ([13]; first compound 0.1 µM) of 0.311 and a relative viability ([13]; first compound 0.3162 µM) of 0.322. The relative viability ([13]; first compound 1 µM) was 0.255, the relative viability ([14]; first compound 0.01 µM) was 0.286 and the relative viability ([14]; first compound 0.1 µM) was 0.322. It also gave a relative viability ([14]; first compound 0.3162 µM) of 0.233, a relative viability ([14]; first compound 1 µM) of 0.224 and a relative viability ([15]; first compound 0.01 µM) of 0.693. For the same compound, the relative viability ([15]; first compound 0.03162 µM) was 0.706, the relative viability ([15]; first compound 0.1 µM) was 0.624 and the relative viability ([15]; first compound 0.3162 µM) was 0.466. It also gave a relative viability ([15]; first compound 1 µM) of 0.275, a relative viability ([16]; first compound 0.01 µM) of 0.327 and a relative viability ([16]; first compound 0.03162 µM) of 0.375. For the same compound, the relative viability ([16]; first compound 0.1 µM) was 0.478, the relative viability ([16]; first compound 0.3162 µM) was 0.569 and the relative viability ([16]; first compound 1 µM) was 0.461. The relative viability ([17]; first compound 0.01 µM) was 0.48, the relative viability ([17]; first compound 0.03162 µM) was 0.554 and the relative viability ([17]; first compound 0.1 µM) was 0.412. For the same compound, the relative viability ([17]; first compound 0.3162 µM) was 0.53, the relative viability ([17]; first compound 1 µM) was 0.407 and the relative viability ([18]; first compound 0.01 µM) was 0.441. The relative viability ([18]; first compound 0.03162 µM) was 0.4, the relative viability ([18]; first compound 0.1 µM) was 0.395 and the relative viability ([18]; first compound 0.3162 µM) was 0.383. The relative viability ([18]; first compound 1 µM) was 0.244, the relative viability ([19]; first compound 0.01 µM) was 0.102 and the relative viability ([19]; first compound 0.03162 µM) was 0.177. For the same compound, the relative viability ([19]; first compound 0.1 µM) was 0.207, the relative viability ([19]; first compound 0.3162 µM) was 0.164 and the relative viability ([19]; first compound 1 µM) was 0.176. The relative viability ([20]; first compound 0.01 µM) was 0.31, the relative viability ([20]; first compound 0.03162 µM) was 0.396 and the relative viability ([20]; first compound 0.1 µM) was 0.345. For the same compound, the relative viability ([20]; first compound 0.3162 µM) was 0.313, the relative viability ([20]; first compound 1 µM) was 0.277 and the relative viability ([21]; first compound 0.01 µM) was 0.353. For the same compound, the relative viability ([21]; first compound 0.03162 µM) was 0.282, the relative viability ([21]; first compound 0.1 µM) was 0.38 and the relative viability ([21]; first compound 0.3162 µM) was 0.35. The relative viability ([21]; first compound 1 µM) was 0.3.

Reference: the supplement of paper PMC10307832
